PubChem BioAssay AID1918952 (Molecular Pharmacology Branch, DTP, NCI, 2023)
“And” between values parts separate entries of the source, which are not always exact repeats. Identical values can stand only once.

Tested on: LG0703-F948-PDC complex spheroid viability
Test: Anticancer human tumor LG0703-F948-PDC patient-derived lung adenocarcinoma cell line growth inhibition
Conditions: for viability, T/C: stronger effect = lower value
How it was run: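 Multicellular complex spheroids of tumor cells with human endothelial cells (HUVEC) and mesenchymal stem cells; the LSD1 inhibitor iadademstat was combined with standard-of-care or investigational agents. Top concentration at or near clinical Cmax, half-log dilutions; final DMSO ≤0.25%.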

[1] = curve of first compound, second compound 0.1 µM
[2] = curve of first compound, second compound 0.316 µM
[3] = curve of first compound, second compound 1 µM
[4] = curve of first compound, second compound 3.16 µM
[5] = curve of first compound, second compound 10 µM
[6] = second compound 0.1 µM, first compound 0.00949 µM
[7] = second compound 0.1 µM, first compound 0.03 µM
[8] = second compound 0.1 µM, first compound 0.0949 µM
[9] = second compound 0.1 µM, first compound 0.3 µM
[10] = second compound 0.316 µM, first compound 0.00949 µM
[11] = second compound 0.316 µM, first compound 0.03 µM
[12] = second compound 0.316 µM, first compound 0.0949 µM
[13] = second compound 0.316 µM, first compound 0.3 µM
[14] = second compound 1 µM, first compound 0.00949 µM
[15] = second compound 1 µM, first compound 0.03 µM
[16] = second compound 1 µM, first compound 0.0949 µM
[17] = second compound 1 µM, first compound 0.3 µM
[18] = second compound 3.16 µM, first compound 0.00949 µM
[19] = second compound 3.16 µM, first compound 0.03 µM
[20] = second compound 3.16 µM, first compound 0.0949 µM
[21] = second compound 3.16 µM, first compound 0.3 µM
[22] = second compound 10 µM, first compound 0.00949 µM
[23] = second compound 10 µM, first compound 0.03 µM
[24] = second compound 10 µM, first compound 0.0949 µM
[25] = second compound 10 µM, first compound 0.3 µM
[26] = second compound 0.1 µM, first compound 0.0316 µM
[27] = second compound 0.1 µM, first compound 0.1 µM
[28] = second compound 0.1 µM, first compound 0.316 µM
[29] = second compound 0.1 µM, first compound 1 µM
[30] = second compound 0.316 µM, first compound 0.0316 µM
[31] = second compound 0.316 µM, first compound 0.1 µM
[32] = second compound 0.316 µM, first compound 0.316 µM
[33] = second compound 0.316 µM, first compound 1 µM
[34] = second compound 1 µM, first compound 0.0316 µM
[35] = second compound 1 µM, first compound 0.1 µM
[36] = second compound 1 µM, first compound 0.316 µM
[37] = second compound 1 µM, first compound 1 µM
[38] = second compound 3.16 µM, first compound 0.0316 µM
[39] = second compound 3.16 µM, first compound 0.1 µM
[40] = second compound 3.16 µM, first compound 0.316 µM
[41] = second compound 3.16 µM, first compound 1 µM
[42] = second compound 10 µM, first compound 0.0316 µM
[43] = second compound 10 µM, first compound 0.1 µM
[44] = second compound 10 µM, first compound 0.316 µM
[45] = second compound 10 µM, first compound 1 µM
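Note: spheroids exposed to agents for seven days before readout.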
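Throughout, for viability, T/C: 100% = DMSO vehicle control wells as normalization base.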

## Nc1ncn(C2CC(O)C(CO)S2)c(=O)n1 (stereo unspecified) + NC1CC1c1ccc(-c2cccc(O)c2)cc1
[1]
  IC50: > 300 nM
[2]
  IC50: > 300 nM
[3]
  IC50: > 300 nM
[4]
  IC50: > 300 nM
[5]
  IC50: > 300 nM
Second compound 0.1 µM, first compound 0.000949 µM
  viability, T/C: 114%
Second compound 0.1 µM, first compound 0.003 µM
  viability, T/C: 102%
[6]
  viability, T/C: 104%
[7]
  viability, T/C: 108%
[8]
  viability, T/C: 108%
[9]
  viability, T/C: 86.2%
Second compound 0.316 µM, first compound 0.000949 µM
  viability, T/C: 106%
Second compound 0.316 µM, first compound 0.003 µM
  viability, T/C: 92.7%
[10]
  viability, T/C: 91%
[11]
  viability, T/C: 107%
[12]
  viability, T/C: 102%
[13]
  viability, T/C: 81.1%
Second compound 1 µM, first compound 0.000949 µM
  viability, T/C: 117%
Second compound 1 µM, first compound 0.003 µM
  viability, T/C: 105%
[14]
  viability, T/C: 102%
[15]
  viability, T/C: 108%
[16]
  viability, T/C: 82.4%
[17]
  viability, T/C: 84.8%
Second compound 3.16 µM, first compound 0.000949 µM
  viability, T/C: 114%
Second compound 3.16 µM, first compound 0.003 µM
  viability, T/C: 101%
[18]
  viability, T/C: 90.8%
[19]
  viability, T/C: 104%
[20]
  viability, T/C: 100%
[21]
  viability, T/C: 71.5%
Second compound 10 µM, first compound 0.000949 µM
  viability, T/C: 104%
Second compound 10 µM, first compound 0.003 µM
  viability, T/C: 94.7%
[22]
  viability, T/C: 96.8%
[23]
  viability, T/C: 105%
[24]
  viability, T/C: 103%
[25]
  viability, T/C: 77.4%

## CC(C)c1c(-c2ccccc2)nc2c(C#N)c[nH]n2c1=O + NC1CCC(NC2CC2c2ccccc2)CC1
[1]
  IC50: > 10000 nM
[2]
  IC50: > 10000 nM
[3]
  IC50: > 10000 nM
[4]
  IC50: > 10000 nM
[5]
  IC50: > 10000 nM
[26]
  viability, T/C: 101%
[27]
  viability, T/C: 95.8%
[28]
  viability, T/C: 85.5%
[29]
  viability, T/C: 90.1%
Second compound 0.1 µM, first compound 3.16 µM
  viability, T/C: 102%
Second compound 0.1 µM, first compound 10 µM
  viability, T/C: 78.3%
[30]
  viability, T/C: 98.1%
[31]
  viability, T/C: 104%
[32]
  viability, T/C: 97.4%
[33]
  viability, T/C: 95%
Second compound 0.316 µM, first compound 3.16 µM
  viability, T/C: 101%
Second compound 0.316 µM, first compound 10 µM
  viability, T/C: 85.9%
[34]
  viability, T/C: 110%
[35]
  viability, T/C: 102%
[36]
  viability, T/C: 106%
[37]
  viability, T/C: 83%
Second compound 1 µM, first compound 3.16 µM
  viability, T/C: 98.4%
Second compound 1 µM, first compound 10 µM
  viability, T/C: 89.1%
[38]
  viability, T/C: 106%
[39]
  viability, T/C: 108%
[40]
  viability, T/C: 108%
[41]
  viability, T/C: 105%
Second compound 3.16 µM, first compound 3.16 µM
  viability, T/C: 107%
Second compound 3.16 µM, first compound 10 µM
  viability, T/C: 94.1%
[42]
  viability, T/C: 110%
[43]
  viability, T/C: 119%
[44]
  viability, T/C: 113%
[45]
  viability, T/C: 105%
Second compound 10 µM, first compound 3.16 µM
  viability, T/C: 100%
Second compound 10 µM, first compound 10 µM
  viability, T/C: 85.8%

## CC(C)CC(NC(=O)C(Cc1ccccc1)NC(=O)c1cnccn1)B(O)O (stereo unspecified)
Compound 0.000316 µM
  viability, T/C: 11.1% and 6.84%
Compound 0.001 µM
  viability, T/C: 1.41% and 0.31%
Compound 0.00316 µM
  viability, T/C: 0.63% and 0.15%
Compound 0.01 µM
  viability, T/C: 0.17%
Compound 0.0316 µM
  viability, T/C: 0.14% and 0.17%
Compound 0.1 µM
  viability, T/C: 0.21% and 0.29%
Curve of compound
  IC50: < 0.316 nM

## Nc1ccccc1NC(=O)c1ccc(CNC(=O)OCc2cccnc2)cc1 + NC1CCC(NC2CC2c2ccccc2)CC1
[1]
  IC50: 118 nM
[2]
  IC50: 142 nM
[3]
  IC50: 127 nM
[4]
  IC50: 141 nM
[5]
  IC50: 139 nM
[6]
  viability, T/C: 110%
[7]
  viability, T/C: 99.9%
[8]
  viability, T/C: 58.8%
[9]
  viability, T/C: 12.6%
Second compound 0.1 µM, first compound 0.949 µM
  viability, T/C: 1.17%
Second compound 0.1 µM, first compound 3 µM
  viability, T/C: 0.33%
[10]
  viability, T/C: 105%
[11]
  viability, T/C: 93.8%
[12]
  viability, T/C: 70.2%
[13]
  viability, T/C: 14.2%
Second compound 0.316 µM, first compound 0.949 µM
  viability, T/C: 1.51%
Second compound 0.316 µM, first compound 3 µM
  viability, T/C: 0.96%
[14]
  viability, T/C: 87.7%
[15]
  viability, T/C: 94.8%
[16]
  viability, T/C: 59.4%
[17]
  viability, T/C: 17%
Second compound 1 µM, first compound 0.949 µM
  viability, T/C: 1.08%
Second compound 1 µM, first compound 3 µM
  viability, T/C: 0.48%
[18]
  viability, T/C: 112%
[19]
  viability, T/C: 109%
[20]
  viability, T/C: 68.9%
[21]
  viability, T/C: 13.5%
Second compound 3.16 µM, first compound 0.949 µM
  viability, T/C: 0.24%
Second compound 3.16 µM, first compound 3 µM
  viability, T/C: 0.24%
[22]
  viability, T/C: 94.7%
[23]
  viability, T/C: 85.2%
[24]
  viability, T/C: 67.2%
[25]
  viability, T/C: 17%
Second compound 10 µM, first compound 0.949 µM
  viability, T/C: 0.59%
Second compound 10 µM, first compound 3 µM
  viability, T/C: 0.92%

## CC1COCCN1c1cc(-c2ccnn2C)c2ccnc(-c3ccn[nH]3)c2n1 (stereo unspecified) + NC1CCC(NC2CC2c2ccccc2)CC1
[1]
  IC50: 43.8 nM
[2]
  IC50: 48.5 nM
[3]
  IC50: 42.6 nM
[4]
  IC50: 71.1 nM
[5]
  IC50: 42.5 nM
Second compound 0.1 µM, first compound 0.00316 µM
  viability, T/C: 76.3%
Second compound 0.1 µM, first compound 0.01 µM
  viability, T/C: 71.6%
[26]
  viability, T/C: 52.8%
[27]
  viability, T/C: 37.5%
[28]
  viability, T/C: 25.5%
[29]
  viability, T/C: 13.5%
Second compound 0.316 µM, first compound 0.00316 µM
  viability, T/C: 69.9%
Second compound 0.316 µM, first compound 0.01 µM
  viability, T/C: 79.5%
[30]
  viability, T/C: 54.6%
[31]
  viability, T/C: 36.2%
[32]
  viability, T/C: 26.2%
[33]
  viability, T/C: 16%
Second compound 1 µM, first compound 0.00316 µM
  viability, T/C: 99.8%
Second compound 1 µM, first compound 0.01 µM
  viability, T/C: 72.4%
[34]
  viability, T/C: 60.2%
[35]
  viability, T/C: 34.7%
[36]
  viability, T/C: 21.6%
[37]
  viability, T/C: 17.6%
Second compound 3.16 µM, first compound 0.00316 µM
  viability, T/C: 78.8%
Second compound 3.16 µM, first compound 0.01 µM
  viability, T/C: 85.8%
[38]
  viability, T/C: 77%
[39]
  viability, T/C: 38.1%
[40]
  viability, T/C: 24.2%
[41]
  viability, T/C: 13.9%
Second compound 10 µM, first compound 0.00316 µM
  viability, T/C: 82.3%
Second compound 10 µM, first compound 0.01 µM
  viability, T/C: 78.9%
[42]
  viability, T/C: 55.6%
[43]
  viability, T/C: 30.1%
[44]
  viability, T/C: 21.1%
[45]
  viability, T/C: 11.5%

## Cn1ncnc1C1c2n[nH]c(=O)c3cc(F)cc(c23)NC1c1ccc(F)cc1 (stereo unspecified)
Compound 0.000316 µM
  viability, T/C: 97.7% and 106%
Compound 0.001 µM
  viability, T/C: 104% and 106%
Compound 0.00316 µM
  viability, T/C: 87.8% and 95.8%
Compound 0.01 µM
  viability, T/C: 93.7% and 109%
Compound 0.0316 µM
  viability, T/C: 93.5% and 93.3%
Compound 0.1 µM
  viability, T/C: 79.6% and 91.1%
Curve of compound
  IC50: > 100 nM

## CC1COCCN1c1cc(C2(S(C)(=N)=O)CC2)nc(-c2ccnc3[nH]ccc23)n1 (stereo unspecified)
Compound 0.0316 µM
  viability, T/C: 105% and 90.8%
Compound 0.1 µM
  viability, T/C: 101% and 105%
Compound 0.316 µM
  viability, T/C: 104% and 100%
Compound 1 µM
  viability, T/C: 87.4% and 81.6%
Compound 3.16 µM
  viability, T/C: 63% and 65.7%
Compound 10 µM
  viability, T/C: 24.9% and 20.9%
Curve of compound
  IC50: 4640 nM and 4620 nM
